Laboratory results published in patent EP4414363A1, “INDOLYLACETIC DERIVATIVES FOR USE IN THE TREATMENT OF NEURODEGENERATIVE DISEASES” (Miuli Pharma S.r.l., priority 2023, dated 2024).

What was measured:
[1] = from reference [15]; cited from earlier work
[2] = Body weight during prolonged treatment; assay type: in vivo, mice
Excerpt: (§1) B6SJL-TgN SOD1/G93A(+)1Gur mice expressing high copy number of mutant human SOD1 with a Gly93Ala substitution [SOD1^G93A] and B6SJL-TgN (SOD1)2Gur mice expressing wild-type human SOD1 (WT) were obtained from Jackson Laboratories (Bar Harbor, ME, USA). Transgenic animals have been crossed with background-matched B6SJL wild-type female and selective breeding maintained each transgene in the […] state. All transgenic mice were identified analyzing extracts from tail tips by staining for SOD1 as previously described.
(§2) Overall, 24 male and female mice housed under diurnal lighting conditions (12 h darkness/light) were used. The number of female and male mice was balanced among all the experimental groups.
(§3) The newly synthesized compound III, dissolved in distilled water, was intraperitoneally administered daily at a dose of […], beginning at 2 months of age until 4,5 months of age.
(§4) Motor coordination and balance was assessed using a five-station mouse rotarod apparatus (Ugo Basile; Milan, Italy) as previously described. In each station, the rod was 6 cm in length and 3 cm in diameter. […] Mice had three trials on the rod, and the latencies to fall were measured once a week and then averaged. […] Body weight was measured immediately before each session of behavioral tests. […]

COX2 = experiment: Western blot of COX2 expression in LPS-exposed microglia cells; assay type: cell-based, murine; details: BV2 microglial cells, LPS 100 ng/mL, compound 100nM, 24h
Method: (§5) Human neuroblastoma SH-SY5Y cells (Cell bank Line Collection ICLC) and immortalized murine microglial BV-2 cell line were grown as monolayers in polystyrene dishes (12 or 6 wells plate) in Dulbecco's modified Eagle's medium (DMEM) with 10% (v/v) fetal bovine serum (FBS), L glutamine (2 mM), 1% penicillin (50 IU/ml) and streptomycin (50 µg/ml). Cells were grown in a humidified atmosphere containing 95% air and 5% CO2, and the medium was changed every two days. All experiments were conducted in cultures containing cells between the 4th and 8th passages.
(§6) SH-SY5Y and BV-2 cells were plated with a confluence of 65.000 cell/mL. After 24 hours of cell seeding, medium was changed for 6h starvation in a medium containing 0% FBS. […]
(§7) Cells were exposed to compounds or vehicle and, after 24 hours, have been analyzed for Western Blotting experiments or MTT assay.
(§8) Western blot analysis was performed as previously described. Protein samples (50 µg) were analyzed on 8% subjected to SDS-polyacrylamide gel electrophoresis (SDS-PAGE) and electrotransferred onto Hybond ECL nitrocellulose paper (Amersham, Milan, Italy). […]
(§9) Immunoreactive bands were detected using ECL (Amersham). The optical density of the bands (normalized for β-actin) was determined by Chemi-Doc Imaging System (Bio-Rad, Segrate, Italy).

SOD1^G93A mice [3] = experiment: Hind limb grip test; assay type: in vivo
Excerpt: as §1, §2, §3
Hind limb grip test was carried out by placing the mouse on a grid (45 cm long × 28 cm large) upside-down (30 cm above a foam pad). The test was performed once a week and the latency to fall off the grid was also measured up to a maximum of 60 s.
To investigate whether the reduced neuroinflammatory response observed in vitro through the effect on TNF-α expression was accompanied by an amelioration of the motor performance of these mice, behavioral tests were weekly performed on WT and SOD1^G93A mice, starting from the second month after birth (P60), when i.p. administration of compound III started and when the mice were asymptomatic. All animals were assigned to three experimental groups: SOD1^G93A+vehicle, SOD1 ^G93A +compound III at 1 mg/kg, and SOD1 ^G93A +compound III at 10 mg/kg, and then weighed, subjected to rotarod test, grip test and observed to detect the disease onset.

TNF-α = experiment: Western blot of LPS-induced TNF-α expression in microglia cells; assay type: cell-based, murine; details: BV2 microglial cells, LPS 100 ng/mL, compound 100nM, 24h
Method: as §5, §6, §7, §8, §9

SOD1^G93A mice [4] = experiment: Survival of ALS mice under prolonged treatment; assay type: in vivo; details: daily i.p. from 2 months of age, dose group not stated, vehicle 127.9 ± 1.65 days
Excerpt: as §1, §2, §3
Disease end stage was defined by the inability of mice to right themselves within 20 s when placed on their sides.
Data were evaluated as means ± SEM. Statistically significant differences among means were determined by one-way ANOVA followed by Student-Newman-Keuls/Bonferroni post-hoc test for western blotting, and Behavioral test. The Kaplan-Meier plot was used to evaluate survival, grip, rotarod and paralysis onset. Student's t-test was used for two groups comparison. […]

SOD1^G93A mice [5] = experiment: Paralysis onset in ALS mice; assay type: in vivo; details: daily i.p., dose group not stated, vehicle 33.69 ± 1.31 days
Excerpt: as §1, §2, §3, §4

SOD1^G93A mice [6] = experiment: Rotarod test (motor coordination and balance); assay type: in vivo
Excerpt: as §1, §2, §3
Motor coordination and balance was assessed using a five-station mouse rotarod apparatus (Ugo Basile; Milan, Italy) as previously described. In each station, the rod was 6 cm in length and 3 cm in diameter. Mice were trained to maintain balance at increasing speed up to a constant speed of 14 rpm for three consecutive trials. The test sessions were conducted by one rotarod trial administered once a week. In this session, the speed of rotation was increased from 4 to 14 rpm over 60 s. Mice had three trials on the rod, and the latencies to fall were measured once a week and then averaged. […] Weekly evaluation of hind limb paralysis was performed. […] Body weight was measured immediately before each session of behavioral tests.
To investigate whether the reduced neuroinflammatory response observed in vitro through the effect on TNF-α expression was accompanied by an amelioration of the motor performance of these mice, behavioral tests were weekly performed on WT and SOD1^G93A mice, starting from the second month after birth (P60), when i.p. administration of compound III started and when the mice were asymptomatic. […]

iNOS = experiment: Western blot of LPS-induced iNOS expression in microglia cells; assay type: cell-based, murine; details: BV2 microglial cells, LPS 100 ng/mL, compound 100nM, 24h
Method: as §5, §6, §7, §8, §9

SMILES | gastric damage evaluated as the lengths of the lesions [1] | body weight ([2]; SOD1^G93A mice treated for 8 weeks, vehicle group 10% reduction at 7 weeks) | body weight ([2]; WT mice, compound versus vehicle) | COX2 expression (COX2) | onset of grip performance loss (50% of the animals started to lose their grip) (SOD1^G93A mice [3]; G93A mice, day after treatment, vehicle around the 35th day) | grip performance (latency to fall off the grid) (SOD1^G93A mice [3]; SOD1^G93A mice, at 6 weeks of treatment, vehicle 28.8 ± 4 sec, maximum 60 s) | grip performance (time remained on the grid) (SOD1^G93A mice [3]; SOD1^G93A mice, at 8 weeks of treatment) | overexpression of TNF-α induced by LPS exposure (TNF-α) | average lifespan (SOD1^G93A mice [4]) | paralysis onset (SOD1^G93A mice [5]) | rotarod: time able to balance on the rotarod (SOD1^G93A mice [6]; SOD1^G93A mice, at 8 weeks of treatment, vehicle 3.7±1 sec, maximum 60 s) | rotarod onset (50% of the animals started to fall off the rotarod) (SOD1^G93A mice [6]; SOD1^G93A mice, day of treatment, vehicle around the 30th day) | rotarod performance (SOD1^G93A mice [6]; wild type mice) | iNOS induction elicited by LPS (iNOS)
COc1ccc2c(c1)c(CC(=O)O)c(C)n2C(=O)c1ccc(Cl)cc1 [indomethacin, reference compound] | 50 ± 8 mm | – | – | – | – | – | – | – | – | – | – | – | – | –
CCOC(=O)Cc1c(C)n(C2CCN(C)CC2)c2ccc(OC)cc12 [Compound III, Ethyl 2-(5-methoxy-2-methyl-1-(1-methylpiperidin-4-yl)-1H-indol-3-yl)acetate] | 3 ± 0.6 mm | remained stable over time | No differences were observed | not COX2 | ~45 days | 43.8 ± 4 s | 20 s | prevent the overexpression of TNF-α | 146.2 ± 3 days | 42.47 ± 1.59 days | 21.4 ± 5 s | ~45 days | did not disrupt this performance | –
COc1ccc2c(c1)c(CC(=O)O)c(C)n2C1CCN(C)CC1 [Compound II, 2-(5-methoxy-2-methyl-1-(1-methylpiperidin-4-yl)-1H-indol-3-yl)acetic acid] | 0 mm | – | – | – | – | – | – | – | – | – | – | – | – | prevent iNOS induction
